tested on: CD4+ antigen-specific human helper T-cell clone (TCC); assay: Antigen-specific stimulation of the helper T-cell clone (TCC) by monocyte-derived dendritic cells, T-cell proliferation (3H-thymidine); assay type: cell-based; settings: Dpt-pulsed M-DC, M-DC/T-cell ratio 1/50, 4 day culture
Description: This activity is further evidenced in additional testing with the above helper T-cell clone and monocyte-derived dendritic cells:
The CD4^+ antigen-specific human helper T-cell clone (TCC) is established by limiting dilution culture (Van Reijsen T. C. et al, J. Allergy Clin. Immunol. 90 [1992] 184-193). The TCC recognizes a peptide derived from the major allergen Der p1 of the house dust mite Dermatophagoides pteronyssinus (Dpt) in association with the MHC class II restriction molecule HLA-DPw4 (Baselmnns P. J. et al., Human Immunol. 61 [2000] 789-798). To obtain sufficient cell numbers for assay purposes, the TCC is expanded in vitro by activation with immobilized anti-CD3 monoclonal antibody (Leu4, Becton Dickinson, San Jose, Calif., USA) and culture in complete medium supplemented with rIL-2 and rhIL-4 (50 U/ml each) (Van Reijsen et al., supra).
Human monocyte-derived dendritic cells (M-DC) are generated from purified monocytes by culturing in RPMI 1640 culture medium at a cell density of 7×10^5 cells/ml. The culture medium is supplemented with 15% FCS and rh-GM-CSF (300 U/ml) and rh-IL-4 (100 U/ml). At day 7 of culture, 90-95% of the cells express the phenotype of M-DC as verified by flow cytometry and they are used for antigen-specific stimulation of the TCC, which is used at least 14 days after the last challenge by antigen or anti-CD3 mAb to ensure a resting state of the cells. For antigen-specific stimulation, the M-DC are incubated overnight (at least 12 h) in culture medium containing 50 μ/ml of the extract of Dpt (ARTU Biologicals NV, Lelystad, The Netherlands). The content of the major allergen Der p1 used is about 18.5 μg/mg of Dpt extract. The M-DC are washed twice and 50 μl aliquots of the final number of M-DC are added to 5×10^4 T-cells per well in 100 μl medium, giving a M-DC/T-cell ratio of 1/50. Immediately thereafter, 50 μl aliquots of a four-fold final concentration of test compound are added. Each sample is tested in quadruplicate. The test compound is dissolved in ethanol to provide a stock solution of 1 mM and diluted 1/1000 in the complete culture medium that is also used to prepare the final test compound dilution. T-cell proliferation is determined by pulsing with 1 μCi/20 μl/well of (methyl-)^3H-thymidine (Amersham, U.K) during the final 16 hours of a 4 day culture period.

| Structure (SMILES) | IC50 |
| --- | --- |
| CC[C@@H]1C[C@H](OC)[C@@H]2O[C@@]1(O)C(=O)C(=O)N1CCCC[C@H]1C(=O)O[C@H](/C(C)=C/[C@@H]1CC[C@H](Cl)[C@H](OC)C1)[C@H](C)[C@@H](O)CC(=O)[C@H](CC)/C=C(\C)C[C@H](C)C[C@@H]2OC [Compound 27-ethyl-ASM] | 4.6 nM |
| CC[C@H]1C/C(C)=C/[C@@H](CC)C(=O)C[C@H](O)[C@@H](C)[C@@H](/C(C)=C/[C@@H]2CC[C@H](Cl)[C@H](OC)C2)OC(=O)[C@@H]2CCCCN2C(=O)C(=O)[C@]2(O)O[C@H]([C@@H](OC)C1)[C@@H](OC)C[C@H]2C [Compound 21-ethyl-ASM] | 1.6 nM |
| CC/C1=C\[C@@H](CC)C(=O)C[C@H](O)[C@@H](C)[C@@H](/C(C)=C/[C@@H]2CC[C@H](Cl)[C@H](OC)C2)OC(=O)[C@@H]2CCCCN2C(=O)C(=O)[C@]2(O)O[C@H]([C@@H](OC)C[C@@H](C)C1)[C@@H](OC)C[C@H]2C [Compound 19-ethyl-ASM] | 6.8 nM |
| CC[C@@H]1C[C@H](OC)[C@@H]2O[C@@]1(O)C(=O)C(=O)N1CCCC[C@H]1C(=O)O[C@H](/C(C)=C/[C@@H]1CC[C@@H](O)[C@H](OC)C1)[C@H](C)[C@@H](O)CC(=O)[C@H](CC)/C=C(\C)C[C@H](C)C[C@@H]2OC [27-ethyl-ascomycin] | 0.88 nM |
| CC[C@H]1C/C(C)=C/[C@@H](CC)C(=O)C[C@H](O)[C@@H](C)[C@@H](/C(C)=C/[C@@H]2CC[C@@H](O)[C@H](OC)C2)OC(=O)[C@@H]2CCCCN2C(=O)C(=O)[C@]2(O)O[C@H]([C@@H](OC)C1)[C@@H](OC)C[C@H]2C [21-ethyl-ascomycin] | 0.33 nM |

— US6706727B1, “Macrolides” (Novartis AG, priority 2002, dated 2004)
